Experimental data: patent US20160115540A1, “PRODRUGS AND DRUGS” (Biogen MA Inc., priority 2013, published 2016)
Where a name gives a salt, the structure may show the parent alone.

Test system: kidney
Test: Transcriptional profiling on Affymetrix GeneChips, single dose, naïve mice: kidney
Type: in vivo, C57BL/6 mice
Conditions: 100 DMF-vs-Veh, 2 h
Method: Treated mice were sacrificed at 2, 7, or 12 hours. Tissues (liver, spleen, kidney, jejunum, cortex, hippocampus, striatum and whole blood) were collected and analyzed by transcriptional profiling on mouse Affymetrix GeneChips.
Tissues (liver, spleen, kidney, jejunum, cortex, hippocampus, striatum and whole blood) were collected and analyzed by transcriptional profiling on mouse Affymetrix GeneChips.
Animals were exposed to CO2 and whole blood collected via cardiac puncture. Two 100 μl aliquots of whole blood were collected in 1.5 mL microcentrifuge tubes and snap frozen in liquid nitrogen. Peripheral (liver, spleen, kidney and jejunum) and CNS brain (cerebellum, hippocampus, striatum and cortex) tissues were harvested and snap frozen in liquid nitrogen, with special care taken to collect tissues of similar size and from the same location. All samples were stored at −80° C. until RNA extraction was conducted.
For RNA preparation, frozen tissues were placed in 2 mL RNAse-free 96-well blocks with 1.5 mL QIAzol Lysis Reagent (QIAgen) and a 3.2 mm stainless steel bead (BioSpec Products, Bartlesville, Okla.). Tissues were disrupted for four cycles of 45 seconds in a Mini-Beadbeater (Biospec Products). RNA was extracted in chloroform and the aqueous phase was mixed with an equal volume of 70% ethanol. Extracted RNA was applied to RNeasy 96 plates and purified by the spin method according to the manufacturer's protocol (RNeasy 96 Universal Tissue Protocol, QIAgen, Hilden Germany).
Automated sample amplifications and biotin labelings were carried out using the NuGEN Ovation RNA Amplification system V2 (Cat #3100), Ovation WB reagent (Cat #1300) and Encore Biotin module (Cat #4200) (NuGEN Technologies, Inc, San Carlos, Calif.) according to manufacturer's recommendations using an Arrayplex automated liquid handler (Beckman Coulter, Indianapolis, Ind.). Two micrograms of biotin labeled sscDNA probe were hybridized to Affymetrix GeneChip Affymetrix HT_MG-430_PM plate arrays with modified conditions as described in Allaire et al. Washing and staining of the hybridized arrays were completed as described in the GeneChip Expression analysis technical manual for HT plate arrays using the Genechip® Array Station (Affymetrix, Santa Clara, Calif.) with modifications as described in Allaire et al. The processed GeneChip® plate arrays were scanned using GeneTitan scanner (Affymetrix, Santa Clara, Calif.).
Affymetrix scans were subject to quality control (QC) measures. These tests included a visual inspection of the distribution of raw signal intensities and an assessment of RNA degradation, relative log expression (RLE), and normalized unsealed standard error (NUSE). All sample scans that passed these QC metrics were included in the analysis.
All CEL files were subjected to GC-content-based Robust Multi-array Average (GCRMA) normalization (version 2.20.0) (Irizarry R A, et al. Nucleic Acids Res 2003; 31:e15; Li C, et al. Genome Biol 2001; 2:[…]0032). Expression levels were log (base 2) transformed.
All calculations and analyses were carried out using R (version 2.11.1) and Bioconductor computational tools (Gentleman R. Springer Science+Business Media 2005).

SMILES: COC(=O)/C=C/C(=O)OC [DMF, dimethyl fumarate]
- FC Kbtbd11 1431254_PM_at: −1.77
- FC Kbtbd11 1435465_PM_at: −1.50
- FC Kdm6b 1440346_PM_at: 1.52
- FC LOC100502834 1441010_PM_at: −1.53
- FC LOC100503447 1443908_PM_at: −1.72
- FC Lipg 1421262_PM_at: 2.42
- FC Lipg 1450188_PM_s_at: 1.94
- FC Lonrf3 1429863_PM_at: 4.13
- FC Lonrf3 1436200_PM_at: 3.86
- FC Maff 1418936_PM_at: 2.83
- FC Mdm2 1423605_PM_a_at: 1.51
- FC Mdm2 1427718_PM_a_at: 1.66
- FC Med13 1438725_PM_at: 2.02
- FC Mfsd2a 1428223_PM_at: −2.59
- FC Mir17hg 1428694_PM_at: 2.82
- FC Mpp6 1441546_PM_at: 1.62
- FC Mt1 1451612_PM_at: 2.79
- FC Mtch2 1438842_PM_at: 1.67
- FC Mthfd2 1419253_PM_at: 2.06
- FC Mthfd2 1419254_PM_at: 1.54
- FC Mylip 1424988_PM_at: −1.70
- FC Naa16 1429056_PM_at: 1.71
- FC Napsa 1430744_PM_at: −4.53
- FC Nat2 1449981_PM_a_at: −2.01
- FC Nlrp6 1427369_PM_at: −1.52
- FC Ntn4 1450512_PM_at: −1.67
- FC Nufip2 1435632_PM_at: 1.57
- FC Osgin1 (1424022_PM_at): 4.63
- FC Ovol1 1419051_PM_at: −1.60
- FC P4ha1 1452094_PM_at: 1.56
- FC Paip1 1441955_PM_s_at: 1.61
- FC Pank1 1429813_PM_at: −1.59
- FC Pgd 1423706_PM_a_at: 1.61
- FC Pgd 1438627_PM_x_at: 1.50
- FC Pgd (1436771_PM_x_at): 1.52
- FC Pgd (1437380_PM_x_at): 1.53
- FC Phf23 1428997_PM_at: 1.72
- FC Phip 1438535_PM_at: 1.50
- FC Plekhf2 1423862_PM_at: 1.54
- FC Plk3 1434496_PM_at: 3.14
- FC Polr3e 1429456_PM_a_at: −1.69
- FC Ppm1k 1441988_PM_at: −1.62
- FC Ppp1r15b 1436366_PM_at: 1.72
- FC Pppde1 1425185_PM_at: 1.94
- FC Pppde1 1451621_PM_at: 1.65
- FC Pprc1 1426381_PM_at: 1.74
- FC Prkar2b 1438664_PM_at: 2.43
- FC Prr5 1451463_PM_at: 1.65
- FC Psme4 1443116_PM_at: 1.56
- FC Rg9mtd2 1435035_PM_at: 1.82
- FC Rhebl1 1447818_PM_x_at: −1.57
- FC Rhebl1 1451516_PM_at: −2.01
- FC Riok2 1423481_PM_at: 1.62
- FC Rwdd2a 1428963_PM_at: 2.54
- FC Siah2 1448170_PM_at: 1.71
- FC Slc1a4 1423549_PM_at: 1.52
- FC Slc7a13 1431740_PM_at: −2.60
- FC Slc20a1 1448568_PM_a_at: 2.07
- FC Slc36a2 1436521_PM_at: 4.63
- FC Slc38a2 1426722_PM_at: 2.05
- FC Slc40a1 1448566_PM_at: 1.71
- FC Snhg1 1433674_PM_a_at: 1.62
- FC Snhg1 1433675_PM_at: 1.69
- FC Snx16 1438803_PM_s_at: 1.60
- FC Spry4 1440867_PM_at: 1.71
- FC Spry4 1445669_PM_at: 1.54
- FC Sqstm1 1450957_PM_a_at: 1.69
- FC Srsf7 1436871_PM_at: 1.57
- FC Srxn1 (1419942_PM_at): 1.62
- FC Srxn1 (1426875_PM_s_at): 1.59
- FC Susd3 1428975_PM_at: −1.51
- FC Syn3 1435311_PM_s_at: −1.73
- FC Taf15 1438130_PM_at: 1.59
- FC Them4 1431140_PM_at: 1.80
- FC Tmco6 1451692_PM_at: −1.57
- FC Tmem26 1435409_PM_at: −1.85
- FC Tmem26 (1434583_PM_at): −1.66
